Laboratory results reported in PMC5520056, “Cryo-EM structures of the ATP-bound Vps4^E233Q hexamer and its complex with Vta1 at near-atomic resolution” (Nature Communications, 2017).

Target: T1, Vps4–Vta1 complex (Saccharomyces cerevisiae, UniProt P52917)
T1 construct: both proteins with N-terminal His6 tag (pET28a), E. coli BL21(DE3); Vps4 hexamer with Vta1 at ~2:1 Vta1/Vps4; four Vta1 CTD dimers modelled; with Vacuolar protein sorting-associated protein VTA1
T1 sequence (P52917 1-437 E233Q): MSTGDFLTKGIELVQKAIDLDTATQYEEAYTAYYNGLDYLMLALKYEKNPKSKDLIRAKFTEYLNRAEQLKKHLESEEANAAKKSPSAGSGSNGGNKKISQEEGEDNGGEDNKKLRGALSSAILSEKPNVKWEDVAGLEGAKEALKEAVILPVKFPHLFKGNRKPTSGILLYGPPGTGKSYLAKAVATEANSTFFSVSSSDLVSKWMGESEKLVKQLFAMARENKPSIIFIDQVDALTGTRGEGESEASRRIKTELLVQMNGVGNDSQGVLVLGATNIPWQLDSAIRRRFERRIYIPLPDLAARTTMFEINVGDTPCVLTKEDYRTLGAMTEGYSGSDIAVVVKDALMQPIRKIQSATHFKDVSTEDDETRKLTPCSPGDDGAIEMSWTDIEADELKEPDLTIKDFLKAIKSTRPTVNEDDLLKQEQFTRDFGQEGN
T1 sequence (Q06263 1-330 partner): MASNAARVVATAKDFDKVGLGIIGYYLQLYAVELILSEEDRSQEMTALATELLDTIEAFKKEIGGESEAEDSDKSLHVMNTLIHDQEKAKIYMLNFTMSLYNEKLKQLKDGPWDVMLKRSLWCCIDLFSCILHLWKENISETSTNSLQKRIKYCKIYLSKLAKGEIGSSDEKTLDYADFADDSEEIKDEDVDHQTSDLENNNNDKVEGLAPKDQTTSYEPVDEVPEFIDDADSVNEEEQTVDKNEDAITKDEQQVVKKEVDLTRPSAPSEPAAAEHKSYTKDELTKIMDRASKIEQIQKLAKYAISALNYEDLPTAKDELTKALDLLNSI
Assay: malachite green phosphate release (ATPase)
Assay type: biochemical
Conditions: 1 uM Vps4, 5 mM ATP, 2 mM MgCl2, pH 7.5, 37 °C; Vta1 present

Nc1ncnc2c1ncn2[C@@H]1O[C@H](COP(=O)(O)OP(=O)(O)OP(=O)(O)O)[C@@H](O)[C@H]1O [ATP]
malachite green phosphate release (ATPase): the ATPase activity of the wild-type Vps4 was increased by twofold in the presence of Vta1
